# Source: patent US6340708B1, “Pharmaceutical composition comprising at least one aminopeptidase A inhibitor” (Institut National de la Sante et de la Recherche Medicale …, priority 1998, dated 2002)
# “Also recorded” adds a separate entry of the source.
# Experiments:
# [1] = tested on: arterial pressure of WKY normotensive and SHR hypertensive rats; experiment: Mean arterial pressure in anaesthetized WKY and SHR rats after i.c.v. injection; type: in vivo, rat; conditions: for maximum hypotensive effect (change in arterial pressure): 100 μg i.c.v.; for antagonist effect on PC18-induced increase in arterial pressure: Losartan 10 μg pretreatment, PC18 60 μg
# From the text: The rats used are male Sprague-Dawley rats weighing 200 to 250 grams; some of them are 11-week-old rats (SHR). Wistar Kyoto normotensive rats are also used as controls. The animals are kept for one week with alternating 12-hour periods of light and half-light, and have water and food available ad libitum. For each experiment, the SHR and WKY rats are weighed, and their arterial pressure and cardiac rhythm are continuously recorded via an invasive route after inserting a catheter (PE 50) into the femoral artery. The catheter is linked to a pressure sensor (COBE) and connected to a signal processor which is linked to an amplifier. The computer system comprises a MacLab interface system and application software (Chart and Scope) which allows data acquisition and calculation through a Macintosh computer.
# These experiments are carried out in Wistar Kyoto (WKY) normotensive rats or spontaneously hypertensive rats (SHR 12 weeks old).
# The animals are anaesthetized with Inactin (5-ethyl-2-(1′-methylpropyl)-2-thiobarbita), this being an anaesthetic which is used regularly in renal or cardiovascular physiology experiments. Its properties are to cause a very slight drop in arterial pressure, which is visible only in SHR rats, and especially to allow a stable basal arterial pressure to be maintained throughout the experiment.
# The mean arterial pressure (systolic+diastolic) is measured continuously, via an invasive route, after catheterizing the femoral artery. The peptides or the inhibitors, are injected via the intracerebroventricular (i.c.v.) route with the aid of a cannula positioned in the lateral ventricle under stereotaxy (Stereotaxic Atlas; G. Paxinos and C. Watson, Academic Press, 1986).
# The experiments are carried out on groups of 4 to 20 individually analysed animals. The results on batches of control animals and treated animals were compared with the aid of an analysis of variance (ANOVA), followed by an unpaired Student's test.
# An injection of angiotensin II is carried out combined, where appropriate, with a consecutive injection of EC33.
# In accordance with the protocol described in Example 3, AngIII (10 ng) in the presence of 60 μg of PC18 is injected into SHR rats. As a control test, an injection of PC18 alone is carried out.
# [2] = tested on: arterial pressure of conscious SHR rats; experiment: Arterial pressure in conscious SHR rats after i.c.v. or i.v. injection; type: in vivo, rat
# Description: These experiments are carried out in a 12-week-old SHR rats (300-350 g). During the operation, the animals are anaesthetized for a limited time (3 hours) with sodium pentobarbital (50 mg/kg intraperitoneal, Laboratoire Sentravet, Plancoët, France) The experiments are carried out a minimum of 24 hours after the operation.
# The injections are carried out with the aid of a cannula positioned in the lateral ventricle under stereotaxy, and the arterial pressure is measured continuously, via an invasive route, after catheterizing the femoral artery. The catheter is exteriorized at the level of the animal's neck, and is linked to a fixing system which allows the rat to move around freely in its cage.
# A first catheter is positioned in the femoral vein in order to carry out the injections, a second catheter is introduced into the femoral artery in order to be able to measure arterial pressure continuously. Both catheters are then exteriorized as indicated above.
# [3] = tested on: formation of angiotensin III from [3H]AngII in hypothalamus; experiment: In vivo metabolism of tritiated AngII/AngIII in murine hypothalamus after i.c.v. injection; design: species or system mouse; conditions: mice
# Description: Male Swiss mice (available from the IFFA Credo Institute) weighing 18 to 20 grams are maintained under artificial light (12 hours in bright phase - 12 hours in half-light) and have food and water available ad libitum. The experiments are carried out between 9 o'clock and 11 o'clock in the morning. The drugs are administered into the lateral ventricle by the intracerebroventricular route (i.c.v) at an amount of 5 μl per mouse according to the method of Haley and McCormick (Br. J. Pharmacol. 12, 12-15).
# For each experiment, six to eight mice are used for each of the conditions. A mixture of 2×10^6 cpm of [^3H]Ang II and 30 μg of unlabelled Ang II is administered in a 5 μl volume, alone or together with EC33 (30 μg). The inhibitors are dissolved in an isotonic saline solution adjusted to a pH of 7.4 with 0.01 M NaOH solution. At various times after the injection, the mice are decapitated, their brains are removed and their hypothalami are dissected on ice and homogenized by sonication (ultrasons, Anemasse, France) in 10 volumes of a 0.1 M HCl solution cooled in ice. […]
# The respective amounts of labelled angiotensins II and III present in the hypothalamus are determined according to the protocol of Ledwith et al. (Anal. Biochem. 213, 349-355). […] The F1 and F2 fractions are then analysed by HPLC to determine their respective content of tritiated angiotensin II and tritiated angiotensin III.
# With the aim of an HPLC analysis, the F1 and F2 fractions are initially concentrated by extraction on a C18 Sep-pak® Cartridges device (Waters). […] After elution on Sep-pak®, the respective F1 and F2 fractions are freeze-dried, dissolved in 0.2 ml of a 0.01 M acetic acid solution, with 20 ng of angiotensin II and of angiotensin III as internal standard, and analysed by HPLC.
# The HPLC analysis is carried out using an H Hypersil ODS®-3 μm reverse phase column (Shandon, Pittsburgh) heated to 45° C., then with an isocratic elution at a flow rate of 0.6 ml per minute. […] Their radioactivity content is estimated with a beta counter. […]
# aminopeptidase A (APA) = experiment: Measurement of APA activity in vitro (GluβNa hydrolysis, purified APA); conditions: APN versus APA
# From the text: In vitro, in the presence of calcium ions, APA hydrolyses α-L-glutamyl-β-naphthylamide (gluβNa) to glutamate and β-naphthylamine (βNa). A diazotation reaction in acid medium makes it possible to reveal the β-naphthylamine by formation of a violet-coloured complex: spectrophotometric measurement then makes it possible to know the amount of complex formed and, by reference to a standard curve produced with increasing concentrations of β-naphthylamine, to deduce therefrom the enzymatic activity of the sample.
# The GluβNa substrate and the β-naphthylamine (Bachem) are dissolved in DMSO (dimethyl sulphoxide) and 0.1 N HCl respectively, and conserved at −20° C. at a concentration of 10^−2 M. The diazotation reaction is carried out in the presence of sodium nitrite (87 mM), ammonium sulphamate (130 mM) and N-(1-naphthyl)-ethylenediamine dihydrochloride (23 mM).
# The reaction takes place at pH 7.4 in 50 mM tris-HCl buffer, in the presence of calcium (4 mM CaCl2); the sample to be assayed is incubated at 37° C. in the presence of substrate (200 μM GluβNa) and in the presence or absence of various concentrations of the inhibitor to be tested, in a final volume of 100 μl. The reaction is stopped by adding 10 μl of 3N HCl. A standard curve of β-naphthylamine in acid medium (add 10 μl of 0.1 N HCl) is produced in parallel.
# The following are added to each well: […]
molecule,measurement,setting,value
"N[C@H](CS)CCS(=O)(=O)[O-].[Na+] [EC33, sodium (S)-3-amino-4-mercaptobutylsulphonate]",effect on the AngII-induced increase in arterial pressure,[1]; AngII 10 ng with EC33 100 μg i.c.v.,completely eliminated
same,modification of the effect on pressure of AngIII,[1]; AngIII 30 ng with EC33 i.c.v.,ineffectiveness
same,maximum hypotensive effect (change in arterial pressure),[1]; hypertensive (SHR) anaesthetized rats,−28 mmHg
same,maximum hypotensive effect (change in arterial pressure),[1]; normotensive (WKY) anaesthetized rats,−22 mmHg
same,decrease in arterial pressure,[2]; 100 μg i.c.v.,−26 mmHg
same,duration of hypotensive effect,[2]; 100 μg i.c.v.,40 min
same,hypotensive effect,[2]; 45 mg/kg i.v.,does not induce a significant hypotensive effect
same,formation of tritiated AngIII in hypothalamus,[3]; EC33 30 μg i.c.v.,immediately blocked; also recorded: totally blocks
same,half-life of [3H]AngII in hypothalamus,[3]; EC33 30 μg i.c.v. with [3H]AngII and 30 μg AngII,5.38 ± 0.21 min
same,"[3H]AngII content in hypothalamus, times the content of the control test","[3]; EC33 30 μg i.c.v., between 0.5 and 7 minutes",approximately 11
CCCCc1nc(Cl)c(CO)n1Cc1ccc(-c2ccccc2-c2nn[nH]n2)cc1 [Losartan],antagonist effect on PC18-induced increase in arterial pressure,[1]; hypertensive rats,about 52%
same,antagonist effect on PC18-induced increase in arterial pressure,[1]; normotensive rats,about 85%
"CSCC[C@H](N)CS [PC18, methioninethiol]",effect on the pressure effect of AngIII,"[1]; AngIII 10 ng with PC18 60 μg i.c.v., SHR rats",potentiation
same,increase in arterial pressure,"[1]; PC18 60 μg i.c.v., normotensive rats",+10 mmHg
same,duration of pressure effect,"[1]; PC18 alone 60 μg i.c.v., SHR rats",approximately 12 minutes
same,times less active on APA than on APN,aminopeptidase A (APA),1000
"angiotensin II (DRVYIHPF; Angiotensin-2; UniProt P01019 25-32, looked up) [ANGII, angiotensin II peptide available from Amersham or Sigma]",maximum magnitude of increase in arterial pressure,"[1]; AngII 10 ng i.c.v., WKY and SHR rats",approximately 10 mmHg
